Results on 2 compounds are retold here after patent US20240010729A1, “COMBINATION THERAPY OF A PD-1 ANTAGONIST AND LAG3 ANTAGONIST AND LENVATINIB OR A PHARMACEUTICALLY ACCEPTABLE SALT THEREOF FOR TREATING PATIENTS WITH CANCER” (MERCK SHARP & DOHME LLC, priority 2020, published 2024).

Test [1] relates to mCRC that is non MSI-H/pMMR. To be noted: third line mCRC patients; cited from earlier work.
Test [2] deals with CT26 colorectal model. Nature of the test: CT26 mouse syngeneic tumor model (tumor growth inhibition, survival). The following applies: CT26, Day 17; lenvatinib 10 mg/kg oral QD, antibodies 10 mg/kg i.p. every 5 days.
Text: Prior to treatment initiation, female BALB/c mice (for CT26 study) or C57BL/6J mice (for KPC-2838c3 study) aged 8 weeks weighing between 18 to 21 grams were anesthetized and subcutaneously injected into the rear flank with 0.3×10^6 CT26 or 0.5×10^6 KPC-2838c3 log-phase sub-confluent cells. When the mean tumor volume of inoculated animals reached approximately 100 mm^3 (II days later for CT26, 15 days later for KPC-2838c3) mice were pair-matched into 8 treatment groups consisting of 10 mice per group. Treatment groups consisted of: 1) 0.5% methylcellulose (Vehicle)+Isotype mouse IgG1 antibody (migG1); 2) Vehicle+anti-PD-1 mIgG1 antibody (muDX400); 3) Vehicle+anti-LAG3 mIgG1 antibody (28G10); 4) Lenvatinib+isotype; 5) Vehicle+anti-PD-1+anti-LAG3; 6) Lenvatinib+anti-PD-1; 7) Lenvatinib+anti-LAG3; 8) Lenvatinib+anti-PD-1+anti-LAG3. Vehicle and lenvatinib were orally gavage-dosed once daily (QD) at 10 mg/kg body weight. Isotype control, a mouse monoclonal antibody specific for adenoviral hexon of the isotype IgG1, as well as anti-PD-1 and anti-LAG3 antibodies were dosed intraperitoneally every 5 days at 10 mg/kg body weight. Start of treatments was considered Day 0 and dosing based on schedules continued as described until Day 35. Caliper measurements of tumors and body weights were captured twice weekly. […]

As to `CNC(=O)c1cc(Oc2ccc(NC(=O)Nc3ccc(Cl)c(C(F)(F)F)c3)c(F)c2)ccn1` [regorafenib], the “6-month PFS rate” value in test [1] is ~15%.

Consider `COc1cc2nccc(Oc3ccc(NC(=O)NC4CC4)c(Cl)c3)c2cc1C(N)=O` [Lenvatinib, 4-[3-chloro-4-(cyclopropylaminocarbonyl)aminophenoxy]-7-methoxy-6-quinolinecarboxamide], for which the “TGI (tumor growth inhibition) respective to Vehicle-treated animals” value in test [2] is given as 54%.
